From ChEMBL document CHEMBL1201862, “PubChem BioAssay data set” (2004)
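Interpolation was linear, between the two tested concentrations surrounding the appropriate level; five concentrations were tested over 48 hours in 96-well plates. Here, GI50 denotes the concentration required for 50% inhibition of growth.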 Active and inactive are the calls of the source. Rule as the data show it: active = GI50 up to about 1.1 µM and inactive = higher.

Legend:
Experiment in all cases: growth of human tumour cells (NCI), 48 h
A498 = system: A498
UACC-62 = system: UACC-62
OVCAR-4 = system: OVCAR-4
HCT-15 = system: HCT-15
SK-OV-3 = system: SK-OV-3
SF-295 = system: SF-295
IGROV-1 = system: IGROV-1
SF-539 = system: SF-539
NCI-H226 = system: NCI-H226
HOP-62 = system: HOP-62
OVCAR-5 = system: OVCAR-5
CAKI-1 = system: CAKI-1
UO-31 = system: UO-31
SF-268 = system: SF-268
SW-620 = system: SW-620
A549 = system: A549
M14 = system: M14
ACHN = system: ACHN
786-0 = system: 786-0

Structure (SMILES)	GI50 (A498)	GI50 (UACC-62)	GI50 (OVCAR-4)	GI50 (HCT-15) [µM]	GI50 (SK-OV-3)	GI50 (SF-295)	GI50 (IGROV-1)	GI50 (SF-539)	GI50 (NCI-H226)	GI50 (HOP-62)	GI50 (OVCAR-5)	GI50 (CAKI-1)	GI50 (UO-31)	GI50 (SF-268)	GI50 (SW-620)	GI50 (A549)	GI50 (M14)	GI50 (ACHN)	GI50 (786-0)
O=C(O)c1ccc(Nc2c3ccccc3nc3ccccc23)cc1	52.6 µM (inactive)	47.4 µM (inactive)	> 100 µM (inactive)	64.4	> 100 µM (inactive)	45.5 µM (inactive)	> 100 µM (inactive)	> 78.2 µM (inactive)	31.8 µM (inactive)	> 67.3 µM (inactive)	> 100 µM (inactive)	49.9 µM (inactive)	54.6 µM (inactive)	67.9 µM (inactive)	59.7 µM (inactive)	41.2 µM (inactive)			
CC(=O)SCCC1c2[nH]c3ccccc3c2CCN1O (stereo not drawn)		> 100 µM (inactive)	> 100 µM (inactive)	71.6	> 100 µM (inactive)	> 100 µM (inactive)	> 100 µM (inactive)	> 100 µM (inactive)		> 100 µM (inactive)	71.4 µM (inactive)	59.7 µM (inactive)	> 100 µM (inactive)	> 100 µM (inactive)	28.1 µM (inactive)	> 100 µM (inactive)	> 100 µM (inactive)	> 100 µM (inactive)	> 100 µM (inactive)
COc1ccc2[nH]c3c(C)c4ccncc4c(C)c3c2c1	0.504 µM (active)	0.731 µM (active)	0.258 µM (active)	0.22	0.75 µM (active)	0.521 µM (active)	0.289 µM (active)	0.409 µM (active)	1.13 µM (inactive)	0.946 µM (active)	1.42 µM (inactive)	0.601 µM (active)	1.42 µM (inactive)	0.429 µM (active)	0.0918 µM (active)	0.264 µM (active)			
CN(C)c1ccc(C2CC(=O)CC(c3ccc(N(C)C)cc3)C23C(=O)NC(=O)NC3=O)cc1 (stereo not drawn)		19.5 µM (inactive)	> 25 µM (inactive)	> 25		19.8 µM (inactive)	> 25 µM (inactive)	14.9 µM (inactive)	> 25 µM (inactive)	18.2 µM (inactive)	> 25 µM (inactive)	> 25 µM (inactive)	> 25 µM (inactive)	19.5 µM (inactive)	> 25 µM (inactive)		> 25 µM (inactive)	> 25 µM (inactive)	12.4 µM (inactive)
CC(=O)/C(=C\c1ccccc1O)C(=O)Nc1ccccc1C		20 µM (inactive)	29.4 µM (inactive)	14.1	51.9 µM (inactive)	23.2 µM (inactive)	25.9 µM (inactive)	18.5 µM (inactive)	27.4 µM (inactive)	20.9 µM (inactive)	21.2 µM (inactive)	16 µM (inactive)	16 µM (inactive)	26 µM (inactive)	20.7 µM (inactive)	20.5 µM (inactive)	17.5 µM (inactive)	17.5 µM (inactive)	15.4 µM (inactive)
C=CCC12CC(=O)C=C1CCC1(C2)OCCO1 (stereo not drawn)	> 100 µM (inactive)	> 100 µM (inactive)	> 100 µM (inactive)	> 100	> 100 µM (inactive)		> 100 µM (inactive)	> 100 µM (inactive)	> 100 µM (inactive)	> 100 µM (inactive)		> 100 µM (inactive)	> 100 µM (inactive)	> 100 µM (inactive)	> 100 µM (inactive)	> 100 µM (inactive)	> 100 µM (inactive)	> 100 µM (inactive)	> 100 µM (inactive)
CCOC(=O)c1c[nH]c2cc3c(cc2c1=O)CCS3(=O)=O.CCOC(=O)c1c[nH]c2ccc3c(c2c1=O)S(=O)(=O)CC3	> 100 µM (inactive)	> 100 µM (inactive)	> 100 µM (inactive)	> 100	> 100 µM (inactive)	> 100 µM (inactive)	> 100 µM (inactive)	> 100 µM (inactive)	62.4 µM (inactive)	> 100 µM (inactive)	> 100 µM (inactive)	> 100 µM (inactive)	> 100 µM (inactive)	> 100 µM (inactive)	> 100 µM (inactive)	> 100 µM (inactive)			
O=C1NC(=O)C(CCO)(c2ccccc2)C(=O)N1	> 100 µM (inactive)	> 100 µM (inactive)	> 100 µM (inactive)	> 100	> 100 µM (inactive)	> 100 µM (inactive)	> 100 µM (inactive)	> 100 µM (inactive)	> 100 µM (inactive)	> 100 µM (inactive)	> 100 µM (inactive)		> 100 µM (inactive)	> 100 µM (inactive)	> 100 µM (inactive)	> 100 µM (inactive)			
Nc1ccccc1Sc1ccc(Cl)cc1	54.2 µM (inactive)	30.3 µM (inactive)	30.8 µM (inactive)	28.1	40.4 µM (inactive)	27.9 µM (inactive)	52 µM (inactive)	35.4 µM (inactive)	4.86 µM (inactive)	31.4 µM (inactive)	29.9 µM (inactive)		17.9 µM (inactive)	39.6 µM (inactive)	37.1 µM (inactive)	37.2 µM (inactive)	31.8 µM (inactive)	27 µM (inactive)	
